How the values were obtained:
Type in all cases: in vivo
[1] = test system: winter barley (Hordeum vulgare); test: Test B postemergence plant response
Summary of the method: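 Plants at the 1- to 4-leaf stage (2 to 18 cm tall), grown in pots of peat moss/vermiculite medium with wetting agent and starter nutrients, received postemergence applications of test chemicals. After 13 to 15 days in a greenhouse, injury was rated visually against untreated controls on a 0 (no effect) to 100 (complete control) scale.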

corn (Zea mays) = test: Test A pre-/postemergence plant response
Summary of the method: (§1)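 Each species was treated preemergence via directed soil spray and postemergence at the one- to two-leaf stage, with compounds formulated in a non-phytotoxic solvent plus surfactant. Visual injury relative to untreated controls was rated after about ten days on a 0–100 scale.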

[2] = test system: pigweed (Amaranthus retroflexus); test: Test A pre-/postemergence plant response
Summary of the method: as §1

[3] = test system: large crabgrass (Digitaria sanguinalis); test: Test A pre-/postemergence plant response
Summary of the method: as §1

[4] = test system: wheat (Triticum aestivum); test: Test A pre-/postemergence plant response
Summary of the method: as §1

[5] = test system: velvetleaf (Abutilon theophrasti); test: Test A pre-/postemergence plant response
Summary of the method: as §1

[6] = test system: giant foxtail (Setaria faberii); test: Test A pre-/postemergence plant response
Summary of the method: as §1

[7] = test system: barnyardgrass (Echinochloa crus-galli); test: Test A pre-/postemergence plant response
Summary of the method: as §1

[8] = test system: morningglory (Ipomoea spp.); test: Test A pre-/postemergence plant response
Summary of the method: as §1

rice (Oryza sativa) = test: Test B flooded paddy test; settings: for Plant response rating, Flood, Rice: 250 g ai/ha, flooded paddy test, visual rating on 0 to 100 scale (0 no effect, 100 complete control) after 13 to 15 days; for Plant response rating, Rice: Flood (flooded paddy test), 13 to 15 days
Summary of the method: (§2)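 Visual scores run from 0 (no effect) to 100 (complete control), assigned by comparison with controls 13 to 15 days after treatment. Test compounds went straight into water standing 3 cm above the soil, around plants at the 2-leaf stage kept in a greenhouse.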

[9] = test system: ducksalad (Heteranthera limosa); test: Test B flooded paddy test; settings: for Plant response rating, Flood, Ducksalad: 250 g ai/ha, flooded paddy test, visual rating on 0 to 100 scale (0 no effect, 100 complete control) after 13 to 15 days; for Plant response rating, Ducksalad: Flood (flooded paddy test), 13 to 15 days
Summary of the method: as §2

[10] = test system: umbrella sedge (Cyperus difformis); test: Test B flooded paddy test; settings: for Plant response rating, Flood, Sedge, Umbrella: 250 g ai/ha, flooded paddy test, visual rating on 0 to 100 scale (0 no effect, 100 complete control) after 13 to 15 days; for Plant response rating, Sedge, Umbrella: Flood (flooded paddy test), 13 to 15 days
Summary of the method: as §2

[11] = test system: barnyardgrass (Echinochloa crus-galli); test: Test B flooded paddy test; settings: for Plant response rating, Flood, Barnyardgrass: 250 g ai/ha, flooded paddy test, visual rating on 0 to 100 scale (0 no effect, 100 complete control) after 13 to 15 days; for Plant response rating, Barnyardgrass: Flood (flooded paddy test), 13 to 15 days
Summary of the method: as §2

[12] = Postemergence, 62 g ai/ha, scale 0 (no effect) to 100 (complete control), 13 to 15 days
[13] = Postemergence, 125 g ai/ha, visual rating after 13 to 15 days, scale 0 (no effect) to 100 (complete control)
[14] = Postemergence, 125 g ai/ha, visual injury, 0 to 100 scale (0 no effect, 100 complete control), approx. ten days
[15] = Postemergence, 500 g ai/ha, 0 to 100 scale, 0 = no effect, 100 = complete control, approx. ten days
[16] = Preemergence, 125 g ai/ha, 0 to 100 scale, 0 = no effect, 100 = complete control
[17] = Preemergence, 500 g ai/ha, visual injury, 0 to 100 scale (0 no effect, 100 complete control), approx. ten days
[18] = 62 g ai/ha, scale 0 to 100, 0 is no effect, 100 is complete control
[19] = 31 g ai/ha, postemergence, scale 0 to 100, 0 is no effect, 100 is complete control
[20] = Postemergence, 250 g ai/ha, scale 0 to 100 (0 no effect, 100 complete control)
[21] = Postemergence, 125 g ai/ha, 0 to 100 scale where 0 is no effect and 100 is complete control
[22] = 62 g ai/ha, scale of 0 to 100 where 0 is no effect and 100 is complete control
[23] = 125 g ai/ha, scale 0 to 100, 0 is no effect, 100 is complete control
[24] = Flood, 31 g ai/ha, scale 0 to 100 (0 no effect, 100 complete control)
[25] = 31 g ai/ha, scale of 0 to 100 where 0 is no effect and 100 is complete control

Cc1ccc(F)cc1-n1c(-c2ccccc2)ncc(C(=O)C2=C(O)CCCC2=O)c1=O [Compound 44]
Plant response rating, Barley ([1]; Postemergence, 31 g ai/ha, scale 0 to 100 (0 no effect, 100 complete control)): 0
Plant response rating, Barley [1, 12]: 0
Plant response rating, Barley [1, 13]: 5
Barley plant response rating ([1]; Postemergence, 250 g ai/ha, scale 0 to 100): 15
Corn plant response rating (corn (Zea mays); [14]): 0
Plant response rating, Corn (corn (Zea mays); [15]): 40
Plant response rating, Corn (corn (Zea mays); [16]): 0
Plant response rating, Corn (corn (Zea mays); [17]): 0
Pigweed plant response rating [2, 14]: 100
Plant response rating, Pigweed [2, 15]: 100
Plant response rating, Pigweed [2, 16]: 60
Plant response rating, Pigweed [2, 17]: 90
Crabgrass, Large plant response rating [3, 14]: 80
Plant response rating, Crabgrass, Large [3, 15]: 90
Plant response rating, Crabgrass, Large [3, 16]: 80
Plant response rating, Crabgrass, Large [3, 17]: 90
Wheat plant response rating [4, 14]: 0
Plant response rating, Wheat [4, 15]: 20
Plant response rating, Wheat [4, 16]: 0
Plant response rating, Wheat [4, 17]: 0
Velvetleaf plant response rating [5, 14]: 100
Plant response rating, Velvetleaf [5, 15]: 100
Plant response rating, Velvetleaf [5, 16]: 70
Plant response rating, Velvetleaf [5, 17]: 100
Foxtail, Giant plant response rating [6, 14]: 80
Plant response rating, Foxtail, Giant [6, 15]: 90
Plant response rating, Foxtail, Giant [6, 16]: 30
Plant response rating, Foxtail, Giant [6, 17]: 90
Barnyardgrass plant response rating [7, 14]: 90
Plant response rating, Barnyardgrass [7, 15]: 100
Plant response rating, Barnyardgrass [7, 16]: 30
Plant response rating, Barnyardgrass [7, 17]: 100
Morningglory plant response rating [8, 14]: 80
Plant response rating, Morningglory [8, 15]: 90
Plant response rating, Morningglory [8, 16]: 20
Plant response rating, Morningglory [8, 17]: 70
Plant response rating, Flood, Rice (rice (Oryza sativa)): 40
Plant response rating, Rice (rice (Oryza sativa); [18]): 20
Plant response rating, Flood, Ducksalad [9]: 90
Plant response rating, Ducksalad [9, 18]: 80
Plant response rating, Flood, Sedge, Umbrella [10]: 90
Plant response rating, Sedge, Umbrella [10, 18]: 80
Plant response rating, Flood, Barnyardgrass [11]: 30
Plant response rating, Barnyardgrass [11, 18]: 0

CCCn1c(-c2ccc(F)cc2)ncc(C(=O)C2=C(O)CCCC2=O)c1=O [Compound 102]
Plant response rating, Barley [1, 19]: 0
Barley plant response rating (0 to 100 scale) ([1]; 62 g ai/ha, postemergence, 0 is no effect, 100 is complete control, 13 to 15 days): 10
Plant response rating, Barley ([1]; Postemergence, 125 g ai/ha, scale 0 to 100 (0 no effect, 100 complete control)): 30
Plant response rating, Barley [1, 20]: 60
Plant response rating, Corn (corn (Zea mays); [21]): 0
Plant response rating, Corn (corn (Zea mays); [15]): 20
Plant response rating, Corn (corn (Zea mays); [16]): 0
Plant response rating, Corn (corn (Zea mays); [17]): 0
Plant response rating, Pigweed [2, 21]: 100
Plant response rating, Pigweed [2, 15]: 100
Plant response rating, Pigweed [2, 16]: 60
Plant response rating, Pigweed [2, 17]: 100
Plant response rating, Crabgrass, Large [3, 21]: 90
Plant response rating, Crabgrass, Large [3, 15]: 100
Plant response rating, Crabgrass, Large [3, 16]: 80
Plant response rating, Crabgrass, Large [3, 17]: 100
Plant response rating, Wheat [4, 21]: 0
Plant response rating, Wheat [4, 15]: 10
Plant response rating, Wheat [4, 16]: 0
Plant response rating, Wheat [4, 17]: 0
Plant response rating, Velvetleaf [5, 21]: 100
Plant response rating, Velvetleaf [5, 15]: 100
Plant response rating, Velvetleaf [5, 16]: 80
Plant response rating, Velvetleaf [5, 17]: 100
Plant response rating, Foxtail, Giant [6, 21]: 80
Plant response rating, Foxtail, Giant [6, 15]: 90
Plant response rating, Foxtail, Giant [6, 16]: 80
Plant response rating, Foxtail, Giant [6, 17]: 100
Plant response rating, Barnyardgrass [7, 21]: 80
Plant response rating, Barnyardgrass [7, 15]: 90
Plant response rating, Barnyardgrass [7, 16]: 40
Plant response rating, Barnyardgrass [7, 17]: 90
Plant response rating, Morningglory [8, 21]: 100
Plant response rating, Morningglory [8, 15]: 100
Plant response rating, Morningglory [8, 16]: 80
Plant response rating, Morningglory [8, 17]: 80
Plant response rating, Flood, Rice (rice (Oryza sativa)): 35
Plant response rating, Rice (rice (Oryza sativa); [22]): 15
Plant response rating, Rice (rice (Oryza sativa); [23]): 20
Rice plant response rating (rice (Oryza sativa); [24]): 10
Plant response rating, Flood, Ducksalad [9]: 85
Plant response rating, Ducksalad [9, 22]: 40
Plant response rating, Ducksalad [9, 23]: 80
Ducksalad plant response rating [9, 24]: 30
Plant response rating, Flood, Sedge, Umbrella [10]: 75
Plant response rating, Sedge, Umbrella [10, 22]: 40
Plant response rating, Sedge, Umbrella [10, 23]: 65
Sedge, Umbrella plant response rating [10, 24]: 30
Plant response rating, Flood, Barnyardgrass [11]: 70
Plant response rating, Barnyardgrass [11, 22]: 60
Plant response rating, Barnyardgrass [11, 23]: 60
Barnyardgrass plant response rating [11, 24]: 15

O=C1CCCC(O)=C1C(=O)c1cnc(-c2ccccc2)n(CC2CCCO2)c1=O (stereo not drawn) [Compound 59]
Plant response rating, Barley [1, 19]: 0
Plant response rating, Barley [1, 12]: 0
Plant response rating, Barley [1, 13]: 10
Plant response rating, Barley [1, 20]: 10
Corn plant response rating (corn (Zea mays); [14]): 10
Plant response rating, Corn (corn (Zea mays); [15]): 30
Plant response rating, Corn (corn (Zea mays); [16]): 0
Plant response rating, Corn (corn (Zea mays); [17]): 0
Pigweed plant response rating [2, 14]: 100
Plant response rating, Pigweed [2, 15]: 100
Plant response rating, Pigweed [2, 16]: 90
Plant response rating, Pigweed [2, 17]: 100
Crabgrass, Large plant response rating [3, 14]: 90
Plant response rating, Crabgrass, Large [3, 15]: 100
Plant response rating, Crabgrass, Large [3, 16]: 90
Plant response rating, Crabgrass, Large [3, 17]: 100
Wheat plant response rating [4, 14]: 0
Plant response rating, Wheat [4, 15]: 10
Plant response rating, Wheat [4, 16]: 0
Plant response rating, Wheat [4, 17]: 0
Velvetleaf plant response rating [5, 14]: 100
Plant response rating, Velvetleaf [5, 15]: 100
Plant response rating, Velvetleaf [5, 16]: 100
Plant response rating, Velvetleaf [5, 17]: 100
Foxtail, Giant plant response rating [6, 14]: 80
Plant response rating, Foxtail, Giant [6, 15]: 90
Plant response rating, Foxtail, Giant [6, 16]: 50
Plant response rating, Foxtail, Giant [6, 17]: 80
Barnyardgrass plant response rating [7, 14]: 90
Plant response rating, Barnyardgrass [7, 15]: 90
Plant response rating, Barnyardgrass [7, 16]: 40
Plant response rating, Barnyardgrass [7, 17]: 90
Morningglory plant response rating [8, 14]: 100
Plant response rating, Morningglory [8, 15]: 100
Plant response rating, Morningglory [8, 17]: 90
Plant response rating, Flood, Rice (rice (Oryza sativa)): 15
Plant response rating, Rice (rice (Oryza sativa); [25]): 0
Plant response rating, Rice (rice (Oryza sativa); [22]): 15
Plant response rating, Rice (rice (Oryza sativa); [23]): 15
Plant response rating, Flood, Ducksalad [9]: 40
Plant response rating, Ducksalad [9, 25]: 0
Plant response rating, Ducksalad [9, 22]: 0
Plant response rating, Ducksalad [9, 23]: 0
Plant response rating, Flood, Sedge, Umbrella [10]: 75
Plant response rating, Sedge, Umbrella [10, 25]: 30
Plant response rating, Sedge, Umbrella [10, 22]: 40
Plant response rating, Sedge, Umbrella [10, 23]: 50
Plant response rating, Flood, Barnyardgrass [11]: 45
Plant response rating, Barnyardgrass [11, 25]: 0
Plant response rating, Barnyardgrass [11, 22]: 0
Plant response rating, Barnyardgrass [11, 23]: 20

Source: patent US8952024B2, “Herbicidal pyrimidone derivatives” (E I du Pont de Nemours and Company, priority 2009, dated 2015)
